Experimental data: patent US10744087B2, “Method to slow ventricular rate” (InCarda Therapeutics, Inc., priority 2018, dated 2020)
Structures can show the parent of a compound that is named as a salt. Where two headings read alike, the source gives them in different places.

Tests used:
[1] = system: pig models of induced atrial fibrillation; assay: Left ventricular contractility (LV dP/dt) and mean arterial pressure before and after AF, atrial pacing 160 beats/min (Example 5); format: in vivo, male Yorkshire pigs; settings: IT metoprolol 0.2 mg/kg
Description: The catheters were positioned under fluoroscopic control. Electrograms were recorded from a decapolar electrode catheter positioned in the LV. Mean arterial pressure (MAP) was continuously recorded from a femoral arterial sheath. LV blood pressure was continuously monitored from a pigtail catheter. A catheter was introduced into the pericardial space via the right atrial appendage for delivery of intrapericardial acetylcholine. Atrial pacing at 160 beats/min was accomplished by delivering electrical stimuli to the right atrial catheter electrodes. Electrograms were monitored using a Prucka CardioLab workstation (GE Medical Systems, Milwaukee Wis.) from atrial and ventricular sites. For intratracheal instillation of metoprolol solution or sterile water, a 5 Fr angiography catheter was introduced into the trachea via the endotracheal tube, extending ˜1 cm past the tube, and its tip was positioned under fluoroscopy at the tracheal carina level. AF duration was compared starting at 2 min after AF was induced, when the IT instillation was administered. The average ventricular rate for each AF was obtained by the mean of six measurements of ventricular rate performed each 30 seconds between the IT delivery (sterile water or metoprolol instillation) and the AF conversion to sinus rhythm. Contractility (LV dP/dt) and MAP were recorded during atrial pacing at 160 beats/min before AF was induced and after it was terminated. Statistical analyses were performed using the SAS system (version 9.4) to apply ANOVA with post-hoc Dunnett's test for each time point. Data are reported as means±SEM. Statistical significance was assumed at p<0.05.

[2] = system: pig models with induced atrial fibrillation; assay: Intratracheal nebivolol or metoprolol, alone or combined with flecainide, in pig models with induced atrial fibrillation (Example 6); format: in vivo, male Yorkshire pigs
Description: The investigations were conducted in male Yorkshire pigs. The animals were preanesthetized with telazol (4.7 mg/kg, intramuscular) and subsequently were further anesthetized using alpha-chloralose (80-mg/kg IV bolus followed by 24-mg/kg/h continuous IV infusion). The pigs were intubated and ventilated at a constant rate of 12 breaths/min and tidal volume of 400 ml per stroke.
The catheters were positioned under fluoroscopic control. Electrograms were recorded from a decapolar electrode catheter positioned in the LV. Mean arterial pressure (MAP) was continuously recorded from a femoral arterial sheath. LV blood pressure was continuously monitored from a pigtail catheter. A catheter was introduced into the pericardial space via the right atrial appendage for delivery of intrapericardial acetylcholine. Atrial pacing at 160 beats/min was accomplished by delivering electrical stimuli to the right atrial catheter electrodes. Electrograms were monitored using a Prucka CardioLab workstation (GE Medical Systems, Milwaukee Wis.) from atrial and ventricular sites. For intratracheal instillation of metoprolol solution or sterile water, a 5 Fr angiography catheter was introduced into the trachea via the endotracheal tube, extending ˜1 cm past the tube, and its tip was positioned under fluoroscopy at the tracheal carina level.
Metoprolol obtained in powder form was used to prepare a stock solution of 15.3 mg/ml by dissolving the drug in 100% dimethyl sulfoxide (DMSO). A volume was withdrawn from the stock solution to achieve a 2 mg/kg IT dose and was supplemented with sterile water to attain a 2 ml total volume for bolus injection.
For Nebivolol (racemic mixtures of d- and l-nebivolol), a stock solution of 25 mg/ml was prepared by dissolving the drug in 100% DMSO. The dose was 0.3 mg/kg for intratracheal instillation. The corresponding volume was withdrawn from the stock solution based on body weight of the pig, and the allocated volume was completed with sterile water to attain 2 ml total volume. The administration was made with a 5 cc syringe with 2 ml of 0.3 mg/kg nebivolol solution and 3 ml of air.
AF was induced with 1 mL of a 102.5 mM solution of acetylcholine bolus delivered through the pericardial catheter, followed by saline flush (2 mL). Burst pacing at a cycle length of 178 ms was performed at 1 minute after intrapericardial administration of ACh. After AF initiation, lavage was carried out with 20 mL of saline.
For the intratracheal instillation of metoprolol (0.2 mg/kg or 0.4 mg/kg), nebivolol (0.3 mg/kg), flecainide (0.75 mg/kg), or cocktail of metoprolol and flecainide (0.2 mg/kg and 0.75 mg/kg, respectively), the drug agent was administered in 2 mL total volume in a single “push” of 2-3 seconds, followed by 3 ml of air in a 5 ml syringe, via the […] Sterile water (2 ml) was used as a placebo for intratracheal instillation in the baseline AF. A washout period of 30 to 60 min was allowed between inductions of each occurrence of AF.
AF duration was compared starting at 2 min after AF was induced, when the IT instillation was administered. The average ventricular rate for each AF was obtained by the mean of six measurements of ventricular rate performed each 30 seconds between the IT delivery (sterile water or metoprolol instillation) and the AF conversion to sinus rhythm.
For the study of nebivolol, in 2 of the 4 animals that were tested, at 60 min following nebivolol administration, flecainide was administered to test the effect of combined use of nebivolol and flecainide. For the study of metoprolol, given that metoprolol can have a short half-life in vivo, the effect of combined use of metoprolol and flecainide was tested by giving a second IT dose of metoprolol-flecainide cocktail 60 min following the first IT dose of metoprolol in the animals.

atrial arrhythmia = settings: intravenous, 5 to 15 mg bolus doses; cited from earlier work
[3] = system: pig models of induced atrial fibrillation; assay: Intratracheal metoprolol in pig model of acetylcholine/burst-pacing induced atrial fibrillation (Example 5): AF duration, PR interval, dominant frequency, ventricular rate; format: in vivo, male Yorkshire pigs; settings: for reduction of ventricular rate during AF: IT metoprolol 0.2 mg/kg vs baseline AF with sterile water
Description: Experiments described herein (e.g., Examples 5-7) complied with the National Institutes of Health Guide for the Care and Use of Laboratory Animals as well as the Declaration of Helsinki. The protocol was approved by the institutional animal use committee of Beth Israel Deaconess Medical Center (Boston Mass.). The investigations were conducted in male Yorkshire pigs weighing 46±1.8 kg. The animals were preanesthetized with telazol (4.7 mg/kg, intramuscular) and subsequently were further anesthetized using alpha-chloralose (80-mg/kg IV bolus followed by 24-mg/kg/h continuous IV infusion). The pigs were intubated and ventilated at a constant rate of 12 breaths/min and tidal volume of 400 ml per stroke. The catheters were positioned under fluoroscopic control. Electrograms were recorded from a decapolar electrode catheter positioned in the LV. Mean arterial pressure (MAP) was continuously recorded from a femoral arterial sheath. LV blood pressure was continuously monitored from a pigtail catheter. A catheter was introduced into the pericardial space via the right atrial appendage for delivery of intrapericardial acetylcholine. Atrial pacing at 160 beats/min was accomplished by delivering electrical stimuli to the right atrial catheter electrodes. Electrograms were monitored using a Prucka CardioLab workstation (GE Medical Systems, Milwaukee Wis.) from atrial and ventricular sites. For intratracheal instillation of metoprolol solution or sterile water, a 5 Fr angiography catheter was introduced into the trachea via the endotracheal tube, extending ˜1 cm past the tube, and its tip was positioned under fluoroscopy at the tracheal carina level. Metoprolol solutions of 0.2 mg/kg for intratracheal instillation were prepared by dilution of stock solution of 15.3 mg/ml in saline, originally obtained from metoprolol in powder form by dilution in dimethyl sulfoxide (DMSO). Plasma samples were analyzed using a high-performance liquid chromatography tandem mass spectrometric assay at Climax Laboratories, Inc. (San Jose Calif.). AF was induced with 1 mL of a 102.5 mM solution of acetylcholine bolus delivered through the pericardial catheter, followed by saline flush (2 mL). Burst pacing at a cycle length of 178 ms was performed at 1 minute after intrapericardial administration of ACh. After AF initiation, lavage was carried out with 20 ml of saline. For the intratracheal instillation of metoprolol (2 ml of 0.2 mg/kg concentration followed by 3 ml of air in a 5 ml syringe), the agent was administered in a single “push” via the modified angiography catheter positioned in the endotracheal tube at the beginning of the inspiration phase after two minutes of consolidated atrial fibrillation. Sterile water (2 ml) was used as a placebo for intratracheal instillation in the baseline AF. A washout period of 30 to 60 min was allowed between inductions of each occurrence of AF. AF duration was compared starting at 2 min after AF was induced, when the IT instillation was administered. The average ventricular rate for each AF was obtained by the mean of six measurements of ventricular rate performed each 30 seconds between the IT delivery (sterile water or metoprolol instillation) and the AF conversion to sinus rhythm. Contractility (LV dP/dt) and MAP were recorded during atrial pacing at 160 beats/min before AF was induced and after it was terminated. Statistical analyses were performed using the SAS system (version 9.4) to apply ANOVA with post-hoc Dunnett's test for each time point. Data are reported as means±SEM. Statistical significance was assumed at p<0.05.

animal models of AF = assay: Intratracheal co-delivery of metoprolol and flecainide in pig AF models (Example 7); format: in vivo, male Yorkshire pigs
Description: Experimental animal models of AF (male Yorkshire pigs), and study reagents (metoprolol and flecainide) were prepared according to similar procedures described in Examples 5 and 6. In this example, the animals received IT administration of either metoprolol alone (0.2 mg/kg or 0.4 mg/kg), a cocktail of metoprolol and flecainide (0.2 mg/kg and 0.75 mg/kg, respectively, or 0.4 mg/kg and 0.75 mg/kg, respectively), or flecainide alone (0.75 mg/kg).

[4] = cited from earlier work
[5] = system: new onset atrial fibrillation or flutter; settings: esmolol-treated patients with new onset atrial fibrillation or flutter; cited from earlier work
atrial fibrillation = settings: given in oral pills; several studies (Ferreira 1997 review); cited from earlier work
[6] = AF induced 30 min after IT nebivolol 0.3 mg/kg

SMILES: COCCc1ccc(OCC(O)CNC(C)C)cc1 (racemic) [metoprolol, (±) 1-(isopropylamino)-3-[p-(2-methoxyethyl)phenoxy]-2-propanol]
- MAP after AF ([1]; before AF 125±4.3, p=0.26, pacing 160 beats/min): 118±4.0
- contractility (LV dP/dt) after AF conversion ([1]; before AF 2337±252.7, pacing 160 beats/min): 1951±277.9
- change in MAP ([1]; before vs after AF): no significant changes
- reduction in contractility (LV dP/dt) after conversion ([1]; pacing 160 beats/min, p=0.006, not different from AF baseline reduction (p=0.85)): 17.5±4.0%
- reduction of ventricular rate during AF ([2]; AF 30 min after IT metoprolol 0.2 mg/kg): moderate
- shortening of the AF duration ([2]; AF induced 30 min after IT metoprolol 0.2 mg/kg): about 36%
- shortening of the AF duration ([2]; AF induced right after IT metoprolol 0.2 mg/kg alone, vs placebo baseline AF): about 28%
- reduction in ventricular rate during AF ([2]; AF induced right after IT metoprolol 0.2 mg/kg, vs baseline AF): about 13%
- conversion rate of atrial arrhythmia (atrial arrhythmia): 13%
- patients with rate reduced at least 25% or to less than 100 bpm (atrial arrhythmia): 68%
- occurrence of atrial flutter during conversion ([3]; IT metoprolol 0.2 mg/kg): In none of the animals did atrial flutter occur
- reduction of ventricular rate during AF [3]: 12±2.6%
- reduction of ventricular rate during AF ([3]; p=0.007): 32 beats/min
- reduction of AF dominant frequency ([3]; IT metoprolol 0.2 mg/kg vs baseline AF, p=0.04): 31%
- shortening of the AF duration ([3]; IT metoprolol 0.2 mg/kg vs placebo baseline AF (sterile water IT), p=0.018): 20.4±4.9%
- AF dominant frequency ([3]; IT metoprolol 0.2 mg/kg, baseline AF 8.7±0.94): 6±1.1 Hz
- ventricular rate during AF ([3]; IT metoprolol 0.2 mg/kg, baseline AF 272±13.7): 240±12.6 beats/min
- AF duration ([3]; IT metoprolol 0.2 mg/kg, placebo baseline 10.3±2.0, mean±SEM): 8.0 ± 1.5 min
- PR interval ([3]; metoprolol 0.2 mg/kg bolus IT, from 174±11.2, p=0.07): 182 ± 11.4 ms
- increase in PR interval ([3]; metoprolol 0.2 mg/kg bolus IT, trend, p=0.07): 4%
- reduction in the AF duration (animal models of AF; IT 0.2 mg/kg metoprolol alone): about 20%
- reduction in the average ventricular rate during the AF conversion (animal models of AF; IT 0.2 mg/kg metoprolol alone): about 10%
- reduction in the AF duration (animal models of AF; IT 0.4 mg/kg metoprolol alone): about 27%
- reduction in the average ventricular rate during the AF conversion (animal models of AF; IT 0.4 mg/kg metoprolol alone): about 10%

SMILES: OC(CNCC(O)C1CCc2cc(F)ccc2O1)C1CCc2cc(F)ccc2O1 (racemic) [nebivolol, 2,2′-Azanediylbis(1-(6-fluorochroman-2-yl)ethanol)]
- reduction in ventricular rate during AF [2, 6]: about 22%
- shortening of the AF duration [2, 6]: about 33%
- reduction in ventricular rate during AF ([2]; AF induced right after IT nebivolol 0.3 mg/kg): about 10%
- shortening of the AF duration ([2]; IT nebivolol 0.3 mg/kg, administered right before the AF induction, vs placebo baseline AF): about 24%
- water solubility ([4]; water): low water solubility

SMILES: OC(CNCC(O)C1CCc2cc(F)ccc2O1)C1CCc2cc(F)ccc2O1 (centres unmarked) [Nebivolol hydrochloride]
- solubility ([4]; in ethanol, propylene glycol, and polyethylene glycol): sparingly soluble
- solubility ([4]; in hexane, dichloromethane, and methylbenzene): very slightly soluble
- solubility ([4]; in methanol, dimethylsulfoxide, and N,N-dimethylformamide): soluble

SMILES: COC(=O)CCc1ccc(OCC(O)CNC(C)C)cc1 (centres unmarked) [esmolol]
- patients converted to sinus rhythm [5]: about 50%

SMILES: O=C(NCC1CCCCN1)c1cc(OCC(F)(F)F)ccc1OCC(F)(F)F (centres unmarked) [flecainide]
- reduction in the average ventricular rate during AF (animal models of AF; IT 0.75 mg/kg flecainide alone): about 10%

SMILES: CC(C)NCC(O)c1ccc(NS(C)(=O)=O)cc1 (centres unmarked) [soltalol]
- efficacy for acute conversion of atrial fibrillation to normal sinus rhythm (atrial fibrillation): 8-49%
